Measured values reported in PubChem BioAssay AID1745844 (Carcinogenic Potency Database (CPDB), 2022).
Calls of active or inactive are those of the source. No rule for the calls is given here.

Tested on: rodent lifetime carcinogenesis bioassay, tumor incidence TD50
Test: chronic cancer bioassays in animals – CPDB, compiled studies (AID 1745844)

CC1CN(N=O)CC(C)N1C(=O)c1ccccc1 (stereo not given)
carcinogen call (rat, strain Fischer 344, females, in drinking water, site: any site (literature study), lesion: several types, types named in the paper, dosed 50 weeks, study length 125 weeks): positive
TD50 (rat, strain Fischer 344, females, in drinking water, site: forestomach, lesion: basal-cell carcinoma, dosed 50 weeks, study length 125 weeks): 26.4 mg/kg/day
TD50 (rat, strain Fischer 344, females, in drinking water, site: forestomach, lesion: papilloma, dosed 50 weeks, study length 125 weeks): 9.66 mg/kg/day
TD50 (rat, strain Fischer 344, females, in drinking water, site: liver, lesion: one or several types, types not named, dosed 50 weeks, study length 125 weeks): 9.1 mg/kg/day

CC1=CC(=C(c2ccc(N)cc2)c2ccc(N)cc2)C=CC1=N
carcinogen call (hamster, strain Syrian Golden, females, by gavage, site: any site (literature study), lesion: several types, types named in the paper, dosed 68 weeks, study length 68 weeks): negative (inactive)
carcinogen call (hamster, strain Syrian Golden, males, by gavage, site: any site (literature study), lesion: several types, types named in the paper, dosed 84 weeks, study length 84 weeks): negative (inactive)
TD50 (hamster, strain Syrian Golden, males, by gavage, site: lung, lesion: bronchiolar adenoma, dosed 84 weeks, study length 84 weeks): 2020 mg/kg/day (inactive)
carcinogen call (rat, strain Sprague-Dawley, females, by gavage, site: any site (literature study), lesion: several types, types named in the paper, dosed 107 weeks, study length 107 weeks): negative (inactive)
carcinogen call (rat, strain Sprague-Dawley, males, by gavage, site: any site (literature study), lesion: several types, types named in the paper, dosed 111 weeks, study length 111 weeks): negative (inactive)

C/C=C1/C[C@@H](C)[C@@](C)(O)C(=O)OC/C2=C/CN(C)CC[C@@H](OC1=O)C2=O
TD50 (rat, strain ACI, males, i.p., site: liver, lesion: liver-cell adenoma, dosed 56 weeks, study length 92 weeks): 1.7 mg/kg/day

C=CCOCC1CO1 (stereo not given)
TD50 (mouse, strain B6C3F1, females, inhaled, site: Harderian gland, lesion: adenoma, dosed 102 weeks, study length 105 weeks): 121 mg/kg/day
TD50 (mouse, strain B6C3F1, females, inhaled, site: lung, lesion: alveolar/bronchiolar adenoma + alveolar/bronchiolar carcinoma, dosed 102 weeks, study length 105 weeks): 123 mg/kg/day
TD50 (mouse, strain B6C3F1, females, inhaled, site: nasal cavity, respiratory epithelium, lesion: adenoma, dosed 102 weeks, study length 105 weeks): 614 mg/kg/day
TD50 (mouse, strain B6C3F1, males, inhaled, site: lung, lesion: alveolar/bronchiolar adenoma + alveolar/bronchiolar carcinoma, dosed 102 weeks, study length 105 weeks): 727 mg/kg/day
TD50 (mouse, strain B6C3F1, males, inhaled, site: nasal cavity, respiratory epithelium, lesion: adenoma, dosed 102 weeks, study length 105 weeks): 182 mg/kg/day
TD50 (rat, strain Osborne-Mendel, females, inhaled, site: any site (literature study), lesion: several types, types named in the paper, dosed 103 weeks, study length 106 weeks): 25.9 mg/kg/day (inactive)
TD50 (rat, strain Osborne-Mendel, males, inhaled, site: any site (literature study), lesion: several types, types named in the paper, dosed 103 weeks, study length 106 weeks): 1.01 mg/kg/day
TD50 (rat, strain Osborne-Mendel, males, inhaled, site: nasal cavity, olfactory epithelium + nasal cavity, respiratory epithelium, lesion: adenocarcinoma + papillary adenoma + squamous-cell carcinoma, dosed 103 weeks, study length 106 weeks): 14.9 mg/kg/day

O=NN1CCOC(O)C1 (stereo not given)
TD50 (rat, strain Fischer 344, females, in drinking water, site: liver, lesion: hepatocellular carcinoma, dosed 50 weeks, study length 122 weeks): 14.9 mg/kg/day (inactive)

NNc1nc(-c2ccc(N)cc2)cs1
TD50 (mouse, strain Swiss, females, in feed, site: all sites, lesion: lymphocytic leukemia, dosed 46 weeks, study length 66 weeks): 11.3 mg/kg/day
TD50 (mouse, strain Swiss, females, in feed, site: any site (literature study), lesion: several types, types named in the paper, dosed 46 weeks, study length 66 weeks): 11.3 mg/kg/day
TD50 (rat, strain Sprague-Dawley, females, in feed, site: all sites, lesion: lymphoblastic lymphoma, dosed 46 weeks, study length 75 weeks): 7.09 mg/kg/day
TD50 (rat, strain Sprague-Dawley, females, in feed, site: any site (literature study), lesion: several types, types named in the paper, dosed 46 weeks, study length 75 weeks): 0.582 mg/kg/day
TD50 (rat, strain Sprague-Dawley, females, in feed, site: mammary gland, lesion: adenocarcinoma, dosed 46 weeks, study length 75 weeks): 1.02 mg/kg/day
TD50 (rat, strain Sprague-Dawley, females, in feed, site: mammary gland, lesion: several types, types named in the paper, dosed 46 weeks, study length 75 weeks): 1.03 mg/kg/day

COc1ccc(C(Cl)=C(c2ccc(OC)cc2)c2ccc(OC)cc2)cc1
carcinogen call (rat, strain Charles River CD (Sprague-Dawley), females, in feed, site: liver, lesion: one or several types, types not named, dosed 104 weeks, study length 104 weeks): negative (inactive)
carcinogen call (rat, strain Charles River CD (Sprague-Dawley), males, in feed, site: liver, lesion: one or several types, types not named, dosed 104 weeks, study length 104 weeks): negative (inactive)

CNC(=S)N(C)C
TD50 (mouse, strain B6C3F1, females, in feed, site: any site (literature study), lesion: several types, types named in the paper, dosed 77 weeks, study length 91 weeks): 1970 mg/kg/day (inactive)
TD50 (mouse, strain B6C3F1, females, in feed, site: lung, lesion: alveolar/bronchiolar adenoma + alveolar/bronchiolar carcinoma, dosed 77 weeks, study length 91 weeks): 1260 mg/kg/day
carcinogen call (mouse, strain B6C3F1, males, in feed, site: any site (literature study), lesion: several types, types named in the paper, dosed 77 weeks, study length 91 weeks): negative (inactive)
TD50 (mouse, strain B6C3F1, males, in feed, site: lung, lesion: alveolar/bronchiolar adenoma + alveolar/bronchiolar carcinoma, dosed 77 weeks, study length 91 weeks): 478 mg/kg/day
TD50 (rat, strain Fischer 344, females, in feed, site: any site (literature study), lesion: several types, types named in the paper, dosed 77 weeks, study length 106 weeks): 17.4 mg/kg/day
TD50 (rat, strain Fischer 344, females, in feed, site: thyroid gland, lesion: follicular-cell adenoma + follicular-cell carcinoma, dosed 77 weeks, study length 106 weeks): 25.8 mg/kg/day
TD50 (rat, strain Fischer 344, females, in feed, site: thyroid gland, lesion: follicular-cell carcinoma, dosed 77 weeks, study length 106 weeks): 45 mg/kg/day
carcinogen call (rat, strain Fischer 344, males, in feed, site: any site (literature study), lesion: several types, types named in the paper, dosed 77 weeks, study length 106 weeks): negative (inactive)
